In brackets after ≈: the same amount, converted by molar mass. Read-outs that look alike come from different tables or passages of the source. Where a SMILES comes first, the peptide text is derived from it. [ ]: non-standard residue; d: D form.
How the values were obtained:
[1] = system: S. maltophilia
[2] = system: M. tuberculosis; type: cell-based, Mycobacterium tuberculosis
[3] = system: A. ruhlandii; assay: MIC by broth microdilution against A. ruhlandii; type: cell-based, Achromobacter ruhlandii; conditions: A. ruhlandii isolates
Method: (§1) MIC values were determined using a modification of the standard broth microdilution reference method defined by the Clinical and Laboratory Standards Institute (CLSI), CLSL. 2015. Methods for Dilution Antimicrobial Susceptibility Tests for Bacteria That Grow Aerobically; Approved Standard-10th Edition. Clinical and Laboratory Standards Institute, Wayne, PA. The modification was based on the replacement of Mueller Hinton Broth with either CAA media (with and without NaCl) or CAA supplemented with 2.5% human serum. MIC is the minimum concentration of peptide sufficient to suppress at least 80% of the bacterial growth compared to control.
(§2) Based on these nine most prevalent strains, direct lytic agents, including GN370, AM1, AM2, and AM3, were evaluated against various isolates from each of the 9 strains. MICs and MBECs (Example 3) were determined, and a sputum inhibition test was conducted, as described below in Example 5.
(§3) The MICs for were determined as described below using the broth microdilution method for meropenem, GN370, AM1, AM2, and AM3. The results are shown below in Tables 8-12.

[4] = system: P. aeruginosa
[5] = system: P. apista; type: cell-based, Pandoraea apista
Method: (§4) The MBEC (after 2-hour treatments) was determined as described in Jones and Wozniak, PsI Produced by Mucoid Pseudomonas aeruginosa Contributes to the Establishment of Biofilms and Immune Evasion, Am. Soc. Microbiol. 2017, 8(3):e00864-17. Meropenem and tobramycin were included as controls and were both poorly active, with MBEC90 values of >256 μg/mL (data not shown).

[6] = system: B. cenocepacia; type: cell-based, Burkholderia cenocepacia
Method: as §4

[7] = system: S. maltophilia; assay: Serial passage resistance development study, S. maltophilia; type: cell-based, Stenotrophomonas maltophilia; conditions: S. maltophilia, day 28, triplicate
[8] = system: Gram-negative bacteria (including P. aeruginosa, E. cloacae, K. pneumoniae, E. coli, and A. baumannii); assay: Inner membrane depolarization (diSC3-5 release); type: cell-based; conditions: equivalent or superior to melittin, LL37, RI-18, and PMBN
Source text: The mechanism of action of Chp peptides disclosed herein can also be evaluated by measuring the depolarization of the inner membrane of Gram-negative bacteria, including MDR and XDR strains. The inner membrane comprises […] phospholipids such as cardiolipin, phosphatidylglycerol, and phosphatidylserine. This creates a net negative charge at physiological pH, which is believed to enhance the binding of cationic peptides, including the Chp peptides disclosed herein. Upon permeabilization of the outer membrane, the ability of Chp peptides to induce dissipation of the cytoplasmic membrane electrical potential gradient (Ay) may be examined, for example by following the release of 3,3′-dipropylthiadicarbocyanine (diSC3-5) as a function of time compared to an untreated control. DiSC3-5 is a fluorophore that is a caged cation concentrated within the bacterial inner membrane and under the influence of the bacterial membrane electrical potential gradient. At high concentrations, diSC3-5 self-quenches, leading to the suppression of fluorescence. When the inner membrane deteriorates or becomes leaky for cations, including protons, the Δψ dissipates, which leads to a release of diSC3-5 and a subsequent increase in fluorescence. […] Without wishing to be bound by theory, it is believed that the adsorption and binding of Chp peptides to the inner membrane and insertion into the lipid bilayer results in membrane permeabilization and pore/ion channel formation, which is concomitant with the collapse of the membrane's electrical potential.

[9] = system: Mycobacterium species; type: cell-based
[10] = system: B. multivorans; assay: MIC by broth microdilution against B. multivorans; type: cell-based, Burkholderia multivorans; conditions: B. multivorans isolates
Method: as §1, §2, §3

[11] = system: S. maltophilia; assay: Time-kill assay in cystic fibrosis patient sputum, S. maltophilia; type: cell-based, Stenotrophomonas maltophilia
Source text: Sputum from 5 cystic fibrosis patients was pooled. The resulting mixture was not filtered, as it was very dense and not amenable to sterilization by filtration. Sputum is known to be a complex mixture of DNA, carbohydrates, and lipids ([…], 2016). As used herein, the term “sputum” refers to the mucus present in the respiratory tract of an animal, such as a human. Sputum may increase in thickness due to the irritation or infection, including bacterial infection, and in some instances, may be expelled by the animal while coughing. In certain instances, cystic fibrosis may be characterized by the presence of a thick, sticky mucus or sputum present in the lungs of cystic fibrosis patients. The activity of GN370, AM1, AM2, AM3, and meropenem was determined in the sputum using a time-kill assay format as disclosed in Zhang et al., Antimicrobial peptide therapeutics for cystic fibrosis, Antimicrobial Agents Chemother. 2005; 49(7):2921-2927. […] Untreated controls were included in addition to pretreatment plating (t=0) for a baseline CFU determination. Activity was also determined in the absence of sputum for comparison to activity observed in the presence of sputum.

[12] = all tested isolates, Tables 8-12

CC[C@H](C)[C@H](NC(=O)[C@@H](CCCNC(=N)N)NC(=O)[C@H](Cc1ccccc1)NC(=O)CNC(=O)CNC(=O)[C@@H](CCCNC(=N)N)NC(=O)[C@H](CCSC)NC(=O)[C@@H]1CCCN1C(=O)[C@@H](CCCNC(=N)N)NC(=O)[C@H](C)NC(=O)[C@@H](CCCNC(=N)N)NC(=O)[C@H](CC(C)C)NC(=O)[C@H](CC(N)=O)NC(=O)[C@@H](CCCNC(=N)N)NC(=O)[C@@H](CCCCN)NC(=O)[C@@H](CCCCN)NC(=O)[C@@H](NC(=O)[C@H](CC(N)=O)NC(=O)[C@@H](NC(=O)[C@H](C)NC(=O)CNC(=O)[C@@H](CCCNC(=N)N)NC(=O)[C@@H](NC(=O)[C@H](Cc1ccccc1)NC(=O)[C@@H](NC(=O)[C@@H](CCCCN)NC(=O)[C@@H](CCCNC(=N)N)NC(=O)[C@H](CO)NC(=O)[C@@H](CCCCN)NC(=O)[C@@H](CCCCN)NC(=O)[C@@H](CCCCN)NC(=O)[C@H](CO)NC(=O)[C@H](CC(C)C)NC(=O)[C@@H](CCCCN)NC(=O)[C@@H](CCCNC(=N)N)NC(=O)[C@@H](CCCNC(=N)N)NC(=O)[C@@H](CCCCN)NC(=O)[C@@H](N)CCSC)[C@@H](C)CC)[C@@H](C)O)C(C)C)C(C)C)C(=O)O [AM3] (H-M[dK][dR][dR][dK]LS[dK][dK][dK]S[dR][dK]IFT[dR]GAVNV[dK][dK][dR]NL[dR]A[dR]PM[dR]GGF[dR]I-OH; N-terminus and C-terminus assumed)
MIC50 ([1]; S. maltophilia isolates): 0.5 µg/mL (≈ 0.109 µM) | MIC90 ([1]; S. maltophilia isolates): 1 µg/mL (≈ 0.219 µM) | MIC Range ([1]; S. maltophilia isolates, in µg/mL): 0.016-2 | MIC ([1]; S. maltophilia test organism of the sputum time-kill assay): AM3 (MIC = 0.25) | activity (MIC) against S. maltophilia isolates [1, 12]: highly active | MIC ([2]; M. tuberculosis (ATCC 35817), (ADC, T) media): 8 µg/mL (≈ 1.75 µM) | MIC ([2]; M. tuberculosis strain TN8109_LB (MDR), 7H9 broth, 20 days): 16 µg/mL (≈ 3.5 µM) | MIC ([2]; M. tuberculosis strain TN8562_M33 (susc), 7H9 broth, 20 days): 16 µg/mL (≈ 3.5 µM) | MIC ([2]; M. tuberculosis strain TN10525_LL (MDR), 7H9 broth, 20 days): 64 µg/mL (≈ 14 µM) | MIC ([2]; M. tuberculosis strain TN10571_KY (MDR), 7H9 broth, 20 days): 16 µg/mL (≈ 3.5 µM) | MIC ([2]; M. tuberculosis strain TN12657_KQ15 (IS), 7H9 broth, 20 days): 16 µg/mL (≈ 3.5 µM) | MIC ([2]; M. tuberculosis strain TN13923_HD17 (susc), 7H9 broth, 20 days): 32 µg/mL (≈ 7 µM) | MIC ([2]; M. tuberculosis strain TN18349_W738 (susc), 7H9 broth, 20 days): 4 µg/mL (≈ 0.875 µM) | MIC ([2]; M. tuberculosis strain TN34503_001 (susc), 7H9 broth, 20 days): 16 µg/mL (≈ 3.5 µM) | MIC50 [3]: 1 µg/mL (≈ 0.219 µM) | MIC90 [3]: > 128 µg/mL | MIC50 ([4]; P. aeruginosa isolates): 0.06 µg/mL (≈ 0.0131 µM) | MIC90 ([4]; P. aeruginosa isolates): 0.25 µg/mL (≈ 0.0547 µM) | MIC Range ([4]; P. aeruginosa isolates, in µg/mL): 0.016-1 | MIC ([4]; P. aeruginosa test organism of the sputum time-kill assay): (MIC = 0.125) | activity (MIC) against P. aeruginosa isolates [4, 12]: highly active | MBEC50 [5]: 8 µg/mL | MBEC90 [5]: 8 µg/mL | MBEC Range [5]: 4 to 16 µg/mL | MBEC50 [6]: 16 µg/mL | MBEC90 [6]: 32 µg/mL | MBEC Range [6]: 1 to 32 µg/mL | change in MIC over serial passage [7]: no increase in MIC | inner membrane depolarization (diSC3-5) [8]: dose-dependent increase in membrane depolarization | activity (MIC) against Mycobacterium species [9]: highest activity | MIC50 [10]: > 128 µg/mL | MIC90 [10]: > 128 µg/mL | effect of sputum on antibacterial activity ([11]; 10% CF sputum vs no sputum): none of GN370, AM1, AM2, and AM3 was inhibited | Log10 CFU/mL of sputum ([11]; absence of sputum, 1 hr): 2.3 Log10 CFU/mL of sputum | Log10 CFU/mL of sputum ([11]; absence of sputum, 3 hr): 2.3 Log10 CFU/mL of sputum | Log10 CFU/mL of sputum ([11]; absence of sputum, 24 hr): 2.3 Log10 CFU/mL of sputum | Log10 CFU/mL of sputum ([11]; presence of 10% sputum, 1 hr): 2.3 Log10 CFU/mL of sputum | Log10 CFU/mL of sputum ([11]; presence of 10% sputum, 3 hr): 2.3 Log10 CFU/mL of sputum | Log10 CFU/mL of sputum ([11]; presence of 10% sputum, 24 hr): 2.3 Log10 CFU/mL of sputum | killing by 1 hour, maintained at 24 hours ([11]; time-kill): complete killing
